Experiment [1] addresses T1, LasR transcriptional activator (Pseudomonas aeruginosa, UniProt P25084).
T1 construct: expressed in transfected cells; host or cells: Pseudomonas putida F117 carrying plasmid pKRC12 (lasR, PlasB-gfp)
In words: P. putida F117 pKRC12 lasB-GFP reporter assay (secondary screens). Format: cell-based. The settings on record: compounds 10 μM, relative fluorescence (fluorescence divided by absorbance at 600 nm) as percent of AHL induced control; for % Activity of AHL Standard, 3 oxo C10HSL: 3oxoC10HSL 100 nM; for % Activity of AHL Standard, 3 oxo C12HSL: 3oxoC12HSL 50 nM. How it is done:
Additional screens were performed similar to screen described in the initial screen, except assays were performed in 96-well microtiter plates at a total volume of 100 μl. The reporter strain P. putida F117 pKRC12 was grown overnight at 28° C. in LB media, diluted with LB media to achieve an optical density of 0.05 at 600 nm (OD600), and 96 μl of cells were aliquoted to 96-well plates. Compounds were added at a final concentration of 100 nm or as otherwise indicated in each experiment and the bacterial cells were incubated with the compounds for approximately 30 minutes prior to the addition of 3oxoC10HSL or 3oxoC12HSL at a final concentration of 100 nM and 50 nM respectively or as indicated for each experiment. Fluorescence was measured at regular intervals after 3 hours using the Wallac Victor2 plate reader with an excitation wavelength of 485 nm and emission detection at 515 nm. Representative results are presented in FIGS. 6A and B and present the percentage of GFP expression activity as a function of expression of the AHL (3oxoC10 HSL) control. The numbers on the X axis refer to the Chembridge library reference number. Effects on growth of the antagonists were determined by measuring the optical density at 600 nm of growing bacterial cultures P. putida F 117 pKRC 12. […] (Reference for P. putida F117 pKRC12: Steidle, A., K. Sigl, R. Schuhegger, A. Ihring, M. Schmid, S. Gantner, M. Stoffels, K. Riedel, M. Givskov, A. Hartmann, C. Langebartels, and L. Eberl. 2001. Visualization of N-acylhomoserine lactone-mediated cell-cell communication between bacteria colonizing the tomato rhizosphere. Appl Environ Microbiol 67:5761-70). […]
This example presents representative results of experiments designed to test the activity of putative antagonists when challenged with different concentrations of synthetic AHLs, particularly 3oxoC12HSL. Assays were conducted with P. putida F117 pKRC12 reporter strain as described in the methods for secondary screens.
Following the initial screens to identify strong antagonists of the LasR transcriptional activator, further investigation of additional compounds in the Chembridge library was carried out. In particular, the experiments described in Example 1 identified three compounds that shared a thiocarbamate structure, as also shown in FIG. 16. To further investigate structure-activity relationships, the inventors examined the antagonist activity of 19 additional compounds with related thiocarbamate structures, using the procedures described in Example 1. The results are presented in Table 4, expressed as the percent activity of the AHL induced control. The % activity represents the relative fluorescence, which is the fluorescence observed in each assay divided by bacterial cell density as measured by absorbance at 600 nm. Compounds were assayed at a concentration of 10 μM. Assays were conducted with P. putida F117 pKRC12 reporter strain as described in the methods for secondary screens. The 3oxoC10HSL and 3oxoC12HSL were assayed at concentrations of 100 nM and 50 nM, respectively.
In general terms: Reporter assays use an easily measured gene product as a stand-in for the process of interest.

Experiment [2] addresses T1, LasR transcriptional activator. In words: Screen signal of thiocarbamate compounds (Table 1), GFP AHL sensor strain with LasR. Format: cell-based. The source says:
A screening system with green fluorescent protein as a reporter gene was adapted in a non-pathogenic species, Pseudomonas putida, closely related to Pseudomonas aeruginosa. A key element involved in the regulation of Pseudomonas aeruginosa, LasR, was engineered into the GFP construct (see FIG. 2), such that expression of GFP is linked to quorum sensing. Pseudomonas putida was then subjected to induction (e.g. by 3oxoC12HsL or 3oxoC10HsL) and/or inhibition by candidate chemical compounds from a commercially available combinatorial library. About 16,000 candidate compounds were individually screened.
Many Gram negative bacteria use quorum sensing, an intercellular signaling network that relies on N-acyl homoserine lactone signal molecules (AHL), to regulate and coordinate behaviors and interactions. Expression of quorum sensing-regulated genes is contingent on a LuxR-type transcriptional regulator and the accumulation of a threshold concentration of the cognate AHL. The experiments in this example relate to screening assays carried out to identify compounds that interfere with virulence gene expression under the control of the LasR transcriptional activator, a member of the LuxR family of transcriptional regulators. The inventors screened a library of approximately 16,000 synthetic compounds for induction and inhibition of quorum sensing in a Pseudomonas putida AHL sensor strain, engineered with the LasR transcriptional activator, which controls virulence gene expression in Pseudomonas aeruginosa. LasR mediated gene expression was monitored by measuring green fluorescent protein (GFP) expression from a transcriptional fusion between GFP and the promoter from lasB, which is under the control of LasR. lasB is a virulence gene that encodes an elastase involved in pathogenesis.
The initial screen utilized 3oxoC10HSL [N-(3-oxo-decanoyl)-L-homoserine lactone] as the inducer of LasR mediated signaling to identify compounds that compete with 3oxoC10HSL for half-maximal activation of GFP expression by the AHL reporter. This strategy enables identification of agonists and antagonists of LasR by pursuing compounds that either reduce or augment the activity of the AHL. The inventors further analyzed the antagonists in competition with 3oxoC12HSL [N-(3-oxo-dodecanoyl)-L-homoserine lactone]. The activities of the agonists were further characterized in the absence of AHL.
To determine the effects of compounds on AHL-mediated quorum sensing, the reporter strain P. putida F117 pKRC12 was grown overnight at 28° C. in LB media, diluted with LB media to achieve an optical density of 0.05 at 600 nm (OD600), and 28 μl aliquots of cells were added to 384-well plates. 16,000 compounds were screened from a subset of the Chembridge DIVERSet, each at a final concentration of 100 nM. Bacterial cells at a final volume of 30 μl were incubated with the compounds for approximately 30 minutes prior to the addition of 3oxoC10HSL, at a final concentration of 100 nM. All of the compounds were dissolved in DMSO. DMSO was included in all controls. A Biomek FX liquid handler was used to dispense the reagents and bacteria into the 384-well plates. The initial screen was performed at room temperature. Fluorescence was measured at regular intervals after 3 hours using the EnVision plate reader (Perkin Elmer, inc.) with an excitation wavelength of 485 nm and emission detection at 510 nm. Compounds that reduced or increased the expression of GFP by a factor of greater than or equal three standard deviations from the mean values for controls containing 3oxoC10HSL were chosen for further analysis. Compounds that increased the expression of GFP by three standard deviations were designated as putative agonists. Compounds that decreased the expression of GFP by three standard deviations were designated as putative antagonists.

T1 sequence (P25084 whole entry): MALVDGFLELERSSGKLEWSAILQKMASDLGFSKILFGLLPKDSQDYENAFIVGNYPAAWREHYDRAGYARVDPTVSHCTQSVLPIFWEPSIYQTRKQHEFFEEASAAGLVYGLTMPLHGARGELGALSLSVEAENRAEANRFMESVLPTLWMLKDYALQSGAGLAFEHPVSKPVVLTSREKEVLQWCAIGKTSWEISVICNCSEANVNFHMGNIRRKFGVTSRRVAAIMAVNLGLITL

With `COC(=O)c1ccccc1NC(=O)CSC(N)=O` [Compound 1], in experiment [1], the “% Activity of AHL Standard, 3 oxo C10HSL” value is reported as 35.86% and the “% Activity of AHL Standard, 3 oxo C12HSL” value is listed as 33.64%.
For the compound `CCOC(=O)c1ccccc1NC(=O)CSC(N)=O` [Compound 2], in experiment [1], the “% Activity of AHL Standard, 3 oxo C10HSL” value is 35.50% and the “% Activity of AHL Standard, 3 oxo C12HSL” value was 40.09%.
Turning to `Cc1ccc(NC(=O)CSC(N)=O)cc1Cl` [Compound 3], in experiment [1], the “% Activity of AHL Standard, 3 oxo C10HSL” value is recorded as 32.27% and the “% Activity of AHL Standard, 3 oxo C12HSL” value is given as 41.63%.
The like results for `Cc1cccc(NC(=O)CSC(N)=O)c1C` [Compound 4] were, in that order, 37.50% and 43.00%.
In the same order, the values of `Cc1ccc(Cl)cc1NC(=O)CSC(N)=O` [Compound 5] are 56.73% and 47.85%.
Turning to `NC(=O)SCC(=O)Nc1cccc(O)c1` [Compound 6], in experiment [1], the “% Activity of AHL Standard, 3 oxo C10HSL” value is 45.08% and the “% Activity of AHL Standard, 3 oxo C12HSL” value worked out at 49.68%.
In the same order, the values of `COc1ccc(NC(=O)CSC(N)=O)cc1` [Compound 7] are 36.45% and 49.85%.
Consider `COc1ccccc1NC(=O)CSC(N)=O` [Compound 5947535], for which, in experiment [2], the “Signal 671/672” value turned out to be 99128, the “Signal 673/674” value is listed as 169923 and the “Signal 674/875” value stood at 572429.
In the same order, the values of `NC(=O)SCC(=O)Nc1ccccc1O` [Compound 5947920] are 31966, 33599 and 35234.
The like results for `NC(=O)SCC(=O)Nc1ccc(Br)cc1` [Compound 5948339] were, in that order, 99889, 122318 and 382242.
With `Cc1ccc(Cl)cc1NC(=O)CSC(N)=O` [Compound 5948544], in experiment [2], the “Signal 671/672” value stood at 120140, the “Signal 673/674” value stood at 98180 and the “Signal 674/875” value is given as 418594.
As for `COc1ccc(NC(=O)CSC(N)=O)cc1` [Compound 5948690], in experiment [2], the “Signal 671/672” value stood at 580722, the “Signal 673/674” value is recorded as 341731 and the “Signal 674/875” value is reported as 1742777.
Regarding `NC(=O)SCC(=O)Nc1ccc(Cl)c(Cl)c1` [Compound 5949527], in experiment [2], the “Signal 671/672” value worked out at 314238, the “Signal 673/674” value is on record as 171491 and the “Signal 674/875” value turned out to be 686157.
With `NC(=O)SCC(=O)Nc1ccccc1Br` [Compound 5949674], in experiment [2], the “Signal 671/672” value turned out to be 184012, the “Signal 673/674” value is 227644 and the “Signal 674/875” value was 1811011.
In the same order, the values of `NC(=O)SCC(=O)Nc1cccc(F)c1` [Compound 5949713] are 100580, 97648 and 265386.
The like results for `COc1ccc(NC(=O)CSC(N)=O)c(OC)c1` [Compound 5950824] were, in that order, 358647, 332745 and 1769017.
The like results for `COC(=O)c1ccccc1NC(=O)CSC(N)=O` [Compound 5951673] were, in that order, 135505, 176618 and 1041625.
For `COC(=O)c1ccc(NC(=O)CSC(N)=O)cc1` [Compound 5952057], in experiment [2], the “Signal 671/672” value is 161090, the “Signal 673/674” value was determined as 186369 and the “Signal 674/875” value was 1124336.
The like results for `CCOC(=O)c1ccccc1NC(=O)CSC(N)=O` [Compound 5952120] were, in that order, 29681, 31840 and 32358.
Take `CC(=O)c1ccc(NC(=O)CSC(N)=O)cc1` [Compound 5952389]: in experiment [2], the “Signal 671/672” value amounted to 464145, the “Signal 673/674” value was found to be 594209 and the “Signal 674/875” value turned out to be 1805803.
Take `Cc1ccc(NC(=O)CSC(N)=O)cc1Cl` [Compound 5952472]: in experiment [2], the “Signal 671/672” value came out at 176752, the “Signal 673/674” value turned out to be 223255 and the “Signal 674/875” value worked out at 652341.
The like results for `NC(=O)SCC(=O)Nc1cccc(Cl)c1` [Compound 5953997] were, in that order, 71274, 87420 and 218815.
On to `NC(=O)SCC(=O)Nc1ccc(I)cc1` [Compound 5955203], for which, in experiment [2], the “Signal 671/672” value amounted to 375590, the “Signal 673/674” value is 386242 and the “Signal 674/875” value is recorded as 1805793.
In the same order, the values of `Cc1ccc(NC(=O)CSC(N)=O)c(C)c1` [Compound 5955325] are 120271, 134098 and 694077.
Turning to `Cc1cccc(NC(=O)CSC(N)=O)c1` [Compound 5955821], in experiment [2], the “Signal 671/672” value is reported as 266776, the “Signal 673/674” value stood at 285870 and the “Signal 674/875” value turned out to be 1575457.
In the same order, the values of `NC(=O)SCC(=O)Nc1ccccc1Cl` [Compound 5956488] are 120221, 145117 and 867440.
In the same order, the values of `Cc1cccc(NC(=O)CSC(N)=O)c1C` [Compound 5956611] are 116987, 131695 and 703195.
In the same order, the values of `COc1cccc(NC(=O)CSC(N)=O)c1` [Compound 5956868] are 246680, 243693 and 1277307.

These data come from US8063108B2, “Method for modulating microbial quorum sensing” (priority 2004, dated 2011).
